Where “and” joins values, the source holds several entries; their conditions need not be identical. Identical values can stand only once. Entries after “also recorded” stand apart in the source; their conditions may differ.
Tests used:
[1] = system: ExVive™ Human Kidney Tissue; experiment: ECM deposition (Gomori's Trichrome, Sirius red) in ExVive tissue; format: cell-based; settings: 0.37-10 ng/ml daily for seven days
Source text: Data represents the average of 4 technical replicates per tissue, 3 tissues per condition and is represented as the fold change relative to the vehicle control following normalization to total protein content as measured by Fast Green staining. *p<0.05 for each condition compared to vehicle control.

[2] = system: ExVive™ Human Kidney Tissue; experiment: GGT activity in ExVive Human Kidney Tissue; format: cell-based; settings: 0.37-10 ng/ml daily for seven days
Protocol: (§1) As described in this present disclosure, the ExVive™ Human Kidney Tissue (Organovo, San Diego, Calif.) is a fully human three-dimensional (3D), bioprinted tissue comprised of an apical layer of polarized primary renal proximal tubule epithelial cells (RPTECs) supported by a collagen IV-rich tubulointerstitial interface of primary renal fibroblasts and endothelial cells. As renal fibrosis is a common downstream effect of drug-induced injury, the ExVive™ Human Kidney Tissue was treated with Transforming Growth Factor R (TGFI3 or TGFbeta), a key player of the fibrotic response, for purposes of evaluating tubulointerstitial fibrosis. Thus, to induce renal fibrosis, a healthy ExVive™ Human Kidney Tissue was treated with TGFI3, a key player of the fibrotic response. In particular, each healthy ExVive™ Human Kidney Tissue was dosed daily for seven days with vehicle control, 0.37 ng/ml TGFβ, 1.1ng/m1 TGFβ, 3.3 ng/ml TGFβ, or 10 ng/m1 TGFβ, respectively. Subsequently, after the ExVive™ Human Kidney Tissue was treated with TGFβ, an assessment of the viability and epithelial cell functions of this ExVive™ Human Kidney Tissue was conducted. […] Data shown is the average of 3 tissue samples per condition and is represented as the fold change relative to the vehicle control. *p<0.05; ***p<0.001 for each condition compared to vehicle control.

[3] = system: ExVive™ Human Kidney Tissue; experiment: Fibrosis-related gene expression by semi-quantitative RTPCR; format: cell-based; settings: 0.37-10 ng/ml daily for seven days
Protocol: Fibrosis-related gene expression was also assessed on this ExVive™ Human Kidney Tissue treated with TGFβ. […] Data shown is the average of 3 tissue samples per condition. *p<0.0001 for each condition compared to vehicle control.

[4] = system: ExVive™ Human Kidney Tissue; experiment: Resazurin conversion in ExVive Human Kidney Tissue; format: cell-based; settings: 0.37-10 ng/ml daily for seven days
Protocol: as §1

P-gp = target: T1, P-gp (Homo sapiens, UniProt P08183); experiment: Rhodamine 123 transport / P-gp efflux in 3D PT tissues; format: cell-based; settings: image quantification, 2 h, 5 μM zosuquidar
T1 construct: P-gp protein expression was detected at the apical surface of the RPTEC cells in the 3D PT model; endogenous in cells; host or cells: bioprinted 3D PT tissue: primary human RPTEC on an interstitium of primary human renal fibroblasts and HUVEC
T1 sequence (P08183 whole entry): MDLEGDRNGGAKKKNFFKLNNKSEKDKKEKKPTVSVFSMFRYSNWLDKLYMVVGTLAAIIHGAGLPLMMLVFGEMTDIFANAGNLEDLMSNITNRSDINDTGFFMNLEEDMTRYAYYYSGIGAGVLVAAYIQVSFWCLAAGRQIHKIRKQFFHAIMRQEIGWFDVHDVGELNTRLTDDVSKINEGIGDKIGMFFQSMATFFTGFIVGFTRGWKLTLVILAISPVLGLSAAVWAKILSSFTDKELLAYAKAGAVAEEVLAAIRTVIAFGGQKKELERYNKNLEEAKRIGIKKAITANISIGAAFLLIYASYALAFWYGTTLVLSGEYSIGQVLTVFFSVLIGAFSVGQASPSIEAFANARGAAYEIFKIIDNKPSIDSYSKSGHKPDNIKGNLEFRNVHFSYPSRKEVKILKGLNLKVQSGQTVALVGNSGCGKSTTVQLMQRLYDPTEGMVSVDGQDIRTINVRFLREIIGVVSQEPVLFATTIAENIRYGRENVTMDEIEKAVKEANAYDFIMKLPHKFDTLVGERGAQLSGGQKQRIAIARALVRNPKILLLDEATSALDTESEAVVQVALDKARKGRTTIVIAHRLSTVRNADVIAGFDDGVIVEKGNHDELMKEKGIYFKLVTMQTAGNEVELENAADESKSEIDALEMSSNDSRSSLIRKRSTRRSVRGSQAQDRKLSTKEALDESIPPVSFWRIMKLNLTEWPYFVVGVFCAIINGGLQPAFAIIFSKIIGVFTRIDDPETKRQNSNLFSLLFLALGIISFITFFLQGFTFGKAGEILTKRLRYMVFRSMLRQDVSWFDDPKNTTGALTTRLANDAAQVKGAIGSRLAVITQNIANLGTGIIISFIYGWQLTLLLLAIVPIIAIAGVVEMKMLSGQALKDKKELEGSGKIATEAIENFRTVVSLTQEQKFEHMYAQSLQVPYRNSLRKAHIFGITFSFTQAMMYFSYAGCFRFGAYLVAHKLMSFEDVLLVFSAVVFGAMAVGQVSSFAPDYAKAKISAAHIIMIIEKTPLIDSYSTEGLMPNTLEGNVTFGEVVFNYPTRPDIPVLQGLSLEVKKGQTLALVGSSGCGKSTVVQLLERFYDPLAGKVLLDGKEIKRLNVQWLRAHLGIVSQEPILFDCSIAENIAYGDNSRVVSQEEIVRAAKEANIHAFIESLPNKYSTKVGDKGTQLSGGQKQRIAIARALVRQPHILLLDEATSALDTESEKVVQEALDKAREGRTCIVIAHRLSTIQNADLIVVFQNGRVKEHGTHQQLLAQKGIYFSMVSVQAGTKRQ
Protocol: Both apical and basolateral sides of tissues were then pre-incubated for 20 min at 37° C. in assay buffer in the presence or absence of 5 μM zosuquidar (Sigma Aldrich, St. Louis, Mo.). Following pre-treatment, tissues were dosed on the basolateral side with 1 μM rhodamine 123 (Molecular Probes, Eugene, Oreg.) with or without 5 μM zosuquidar for 2h at 37° C. After incubation, the tissues were washed with cold assay buffer, fixed with 2% PFA, and cryosectioned. Images were captured at the same exposure time across all conditions. Fluorescence intensity, corrected for background and relative area, was calculated in Image J (National Institutes of Health, Bethesda, Md.) and graphed as fold change relative to control using GraphPad Prism® software (GraphPad, San Diego).

SGLT2 = target: T2, SGLT2 (Homo sapiens, UniProt P31639); experiment: Glucose (2-DG) uptake colorimetric assay in 3D PT tissues; format: cell-based
T2 construct: SGLT2 protein expression was detected primarily at the apical surface of RPTEC on 3D PT tissues; endogenous in cells; host or cells: bioprinted 3D PT tissue: primary human RPTEC on an interstitium of primary human renal fibroblasts and HUVEC
T2 sequence (P31639 1-672): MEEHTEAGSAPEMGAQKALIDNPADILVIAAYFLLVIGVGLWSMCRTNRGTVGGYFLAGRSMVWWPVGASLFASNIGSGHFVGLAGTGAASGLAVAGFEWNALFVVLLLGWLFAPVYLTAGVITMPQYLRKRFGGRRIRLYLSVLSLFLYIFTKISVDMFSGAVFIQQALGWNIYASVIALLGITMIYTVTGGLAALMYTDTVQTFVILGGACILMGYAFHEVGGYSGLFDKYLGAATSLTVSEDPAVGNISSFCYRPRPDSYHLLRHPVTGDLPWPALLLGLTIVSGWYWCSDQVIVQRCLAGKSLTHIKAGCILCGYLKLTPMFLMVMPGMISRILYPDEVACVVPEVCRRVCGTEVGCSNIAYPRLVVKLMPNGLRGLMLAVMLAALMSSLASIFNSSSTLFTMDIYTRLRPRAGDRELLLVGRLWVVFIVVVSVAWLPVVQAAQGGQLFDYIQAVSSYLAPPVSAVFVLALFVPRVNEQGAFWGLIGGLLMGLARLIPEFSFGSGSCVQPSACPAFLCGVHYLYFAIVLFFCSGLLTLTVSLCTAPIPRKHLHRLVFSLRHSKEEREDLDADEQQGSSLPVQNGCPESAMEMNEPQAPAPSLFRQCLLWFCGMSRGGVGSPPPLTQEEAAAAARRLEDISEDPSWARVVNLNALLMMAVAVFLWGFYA
Protocol: Glucose uptake in 3D PT tissues was detected and quantified according to the manufacturer's protocol (Abeam, Cambridge, Mass.). Insulin-Transferrin-Selenium (Gibco, Carlsbad, Calif.) was used to stimulate glucose uptake and canagliflozin (Santa Cruz Biotech, Dallas, Tex.) was used to inhibit SGLT2 function. […] Tissues were then pretreated with 1X insulin or 500 μM canagliflozin for 20 minutes, followed by addition of 1 mM 2-deoxyglucose. Tissues were washed extensively with PBS and lysed in extraction buffer in Precellys® lysis tubes (Precellys, Rockville, Md.).

3D PT tissues [5] = experiment: GGT activity of 3D PT tissues (epithelial function); format: cell-based, human; settings: 5 μM cisplatin, daily for 7 days
Protocol: GGT activity was measured according to the manufacturer's protocol (Sigma Aldrich, St. Louis, Mo.). Tissues were washed twice with DPBS and lysed in GGT assay buffer in a Precellys® lysis tube (Precellys, Rockville, Md.). Lysate was assessed for GGT activity by comparison to a standard curve integration of absorbance normalized for volume and duration of incubation period at 37° C. using GraphPad Prism® software (GraphPad, San Diego, Calif.). Data shown represent the average GGT activity in mIU/ml for analysis of GGT function over time, or percent relative to vehicle for toxicity studies.

3D PT tissues [6] = experiment: LDH release from 3D PT tissues; format: cell-based, human; settings: 5 μM cisplatin alone, treatment day 5 (peak)
Protocol: Lactate dehydrogenase (LDH) activity assay was performed according to the manufacturer's protocol (Abcam, Cambridge, Mass.). Conditioned media was collected from 3D PT tissues and further diluted in fresh media to ensure that the LDH activity of the sample was within the linear range of the assay. Samples were measured on a microplate reader (BMG Labtech, Cary, N.C.). LDH activity was determined by standard curve integration of absorbance normalized for volume and duration using GraphPad Prism® software (GraphPad, San Diego, Calif.). Data shown represent the fold change in LDH activity relative to vehicle control for each day of sampling.

3D PT tissues [7] = experiment: PCNA staining, RPTEC proliferation in 3D PT tissues; format: cell-based, human; settings: daily for 7 days
Protocol: 3D PT were fixed overnight in 2% paraformaldehyde (Electron Microscopy Sciences, Hatfield, Pa.). Tissues were oriented for transverse sectioning by pre-embedding in HistoGel™ (Thermo Fisher, Carlsbad, Calif.) and were then dehydrated and infiltrated with paraffin by automated processing on a Tissue-Tek VIP® tissue processing system (Sakura Finetek USA, Torrance, Calif.). Tissues were sectioned at 5 μM on a Leica® Reichert-Jung® Histocut microtome (Leica Biosystems, Buffalo Grove, Ill.). Hematoxylin and eosin (H&E) or Gomori's trichrome (TCM) stains were generated using a Leica® Autostainer XL (Leica Biosystems, Buffalo Grove, Ill.) according to manufacturer's instructions. Immunohistochemistry was performed as previously described (King et al., 2013) using the primary antibodies in Table 1. Following overnight incubation with primary antibodies at 4° C., sections were stained with AlexaFluor®-conjugated secondary antibodies (Thermo Fisher, Carlsbad, Calif.) at 1:200 dilution. For P-gp and SGLT2 detection, tyramide signal amplification was performed according to the manufacturer's instructions (Thermo Fisher, Carlsbad, Calif.). Slides were counterstained and mounted with FluoroGel II with DAPI (Electron Microscopy Sciences, Hatfield, Pa.). H&E and TCM images were acquired on a Zeiss® Axioskop with Zeiss® Zen software (Zeiss Microscopy, Thornwood, NY). Immunofluorescent images were acquired on a Zeiss® Axio® Imager A2 with Zeiss® Zen software.

3D PT tissues [8] = experiment: H&E histology of 3D PT tissues; settings: daily for 7 days; 5 μM cisplatin, 1 mM cimetidine
Protocol: 3D PT were fixed overnight in 2% paraformaldehyde (Electron Microscopy Sciences, Hatfield, Pa.). Tissues were oriented for transverse sectioning by pre-embedding in HistoGel™ (Thermo Fisher, Carlsbad, Calif.) and were then dehydrated and infiltrated with paraffin by automated processing on a Tissue-Tek VIP® tissue processing system (Sakura Finetek USA, Torrance, Calif.). Tissues were sectioned at 5 μM on a Leica® Reichert-Jung® Histocut microtome (Leica Biosystems, Buffalo Grove, Ill.). Hematoxylin and eosin (H&E) or Gomori's trichrome (TCM) stains were generated using a Leica® Autostainer XL (Leica Biosystems, Buffalo Grove, Ill.) according to manufacturer's instructions. Immunohistochemistry was performed as previously described (King et al., 2013) using the primary antibodies in Table 1. Following overnight incubation with primary antibodies at 4° C., sections were stained with AlexaFluor®-conjugated secondary antibodies (Thermo Fisher, Carlsbad, Calif.) at 1:200 dilution. For P-gp and SGLT2 detection, tyramide signal amplification was performed according to the manufacturer's instructions (Thermo Fisher, Carlsbad, Calif.). Slides were counterstained and mounted with FluoroGel II with DAPI (Electron Microscopy Sciences, Hatfield, Pa.). H&E and TCM images were acquired on a Zeiss® Axioskop with Zeiss® Zen software (Zeiss Microscopy, Thornwood, NY). […]

3D PT tissues [9] = experiment: Passive permeability (Papp) of Lucifer yellow across 3D PT tissues; format: in vitro ADME, human; settings: for Papp: Lucifer yellow 250 μM, 1 h, individual tissues 1-6 and average
Protocol: Tissues were then dosed with 250 μM Lucifer yellow (Thermo Fisher, Carlsbad, Calif.) to the apical compartment and fresh assay buffer in the basolateral (receiver) compartment. Following incubation for 1 h at 37° C., samples were taken from both the apical and basolateral compartments. Fluorescence in each sample was measured on a BMG plate reader with an excitation filter of 490 nm and an emission filter of 540 nm (BMG Labtech, Cary, N.C.) and normalized to a standard curve for quantification. Papp was calculated with equation 1, where V represents the volume of Lucifer yellow solution, T is the duration of the incubation, D0 is the concentration of Lucifer yellow applied to the cells, and A is the growth area of the Transwell® insert. Papp=(V/A×D0))*(ΔD/ΔT) Equation 1: […]

ACE = target: T3, ACE (Homo sapiens, UniProt P12821); experiment: ACE function: conversion of angiotensin I to angiotensin II (ELISA); format: cell-based; settings: after 5 ng/ml human angiotensin I for 24 h
T3 construct: ACE protein was detected in both conditioned media and tissue lysates, with higher detection in the tissue lysates; endogenous in cells; host or cells: bioprinted 3D PT tissue: primary human RPTEC on an interstitium of primary human renal fibroblasts and HUVEC
T3 sequence (P12821 30-1306): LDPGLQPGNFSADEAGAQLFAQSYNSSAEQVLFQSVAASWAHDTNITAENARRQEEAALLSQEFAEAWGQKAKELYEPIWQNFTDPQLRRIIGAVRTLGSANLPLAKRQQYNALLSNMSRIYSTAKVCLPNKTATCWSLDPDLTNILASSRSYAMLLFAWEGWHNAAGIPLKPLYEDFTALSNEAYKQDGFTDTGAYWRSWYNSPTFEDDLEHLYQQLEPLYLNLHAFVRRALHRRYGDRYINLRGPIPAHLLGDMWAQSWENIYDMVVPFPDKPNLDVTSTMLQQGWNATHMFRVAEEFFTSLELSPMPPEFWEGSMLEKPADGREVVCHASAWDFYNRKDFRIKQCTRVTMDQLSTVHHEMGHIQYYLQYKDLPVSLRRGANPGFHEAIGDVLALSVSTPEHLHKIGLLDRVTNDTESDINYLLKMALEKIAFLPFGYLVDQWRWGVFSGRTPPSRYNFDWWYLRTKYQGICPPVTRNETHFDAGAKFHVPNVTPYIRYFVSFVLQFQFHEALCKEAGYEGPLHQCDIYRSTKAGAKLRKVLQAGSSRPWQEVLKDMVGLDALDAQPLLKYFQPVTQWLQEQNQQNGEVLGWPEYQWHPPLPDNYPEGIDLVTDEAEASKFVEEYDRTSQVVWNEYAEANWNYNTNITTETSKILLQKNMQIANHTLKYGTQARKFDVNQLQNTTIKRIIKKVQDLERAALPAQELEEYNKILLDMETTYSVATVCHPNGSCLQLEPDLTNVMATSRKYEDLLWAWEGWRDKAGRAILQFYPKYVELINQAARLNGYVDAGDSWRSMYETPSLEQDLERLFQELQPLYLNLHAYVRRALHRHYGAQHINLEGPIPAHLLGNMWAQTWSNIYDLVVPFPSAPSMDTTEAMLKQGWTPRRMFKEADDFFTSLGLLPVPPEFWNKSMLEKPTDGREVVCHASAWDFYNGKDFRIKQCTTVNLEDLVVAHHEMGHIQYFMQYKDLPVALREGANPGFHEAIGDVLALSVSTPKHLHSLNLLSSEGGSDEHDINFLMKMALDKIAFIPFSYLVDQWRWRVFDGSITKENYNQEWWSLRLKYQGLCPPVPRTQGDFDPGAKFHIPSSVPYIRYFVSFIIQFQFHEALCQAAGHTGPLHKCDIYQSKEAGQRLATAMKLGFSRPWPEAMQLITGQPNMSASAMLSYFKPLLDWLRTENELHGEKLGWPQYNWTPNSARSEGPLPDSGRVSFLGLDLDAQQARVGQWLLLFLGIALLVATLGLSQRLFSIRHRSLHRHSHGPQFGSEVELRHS
Protocol: To evaluate ACE enzyme function, 3D PT tissues were treated for 24 h with 5 ng/ml human angiotensin I (Abeam, Cambridge, Mass.) and angiotensin II was then detected using a competitive ELISA kit from Sigma per the manufacturer's instructions (Sigma-Aldrich, St. Louis, Mo.). Plates were read at 450 nm within 30 minutes of addition of the stop solution (BMG Labtech, Cary, N.C.). The concentration of angiotensin II in the test samples was determined by comparison to the standard curve using GraphPad Prism® software (GraphPad, San Diego, Calif.).

[10] = humans, Zhang and Zhou, 2012; cited from earlier work
3D PT tissues [11] = settings: OCT2 inhibition by cimetidine
Source text: 3D PT Novo View™ Tissues were fabricated as described (Nguyen et al., 2016). Briefly, cultured renal fibroblasts and HUVEC were combined in a 50:50 ratio and resuspended in NovoGel® Bio-Ink, and then bioprinted onto 0.4 μm Transwell® clear polyester membrane inserts in a 24-well plate (Coming Costar, Coming, NY) using a NovoGen Bioprinter® Instrument (Organovo Inc., San Diego, Calif.) with previously established protocols (Forgacs et al., 2012; Murphy et al., 2015; Nguyen et al., 2016). Following bioprinting, NovoView′ Tissues were cultured in NovoView™ Kidney Media (Organovo, San Diego, Calif.). On culture day 3, primary RPTEC cells were added to the tissues in a suspension of 1.25×10^6 cells/ml in RPTEC media. […]
Assessment of metabolic activity as a surrogate for tissue viability and health was performed by alamarBlue™ assay according to the manufacturer's protocol (Thermo Fisher, Carlsbad, Calif.). […] After incubation, the alamarBlue′ solution was removed and fluorescence was measured on a BMG Labtech POLARstar® Omega reader (Cary, N.C.) with an excitation filter of 560 nm and an emission filter of 590 nm. Graphed data represent the percent relative fluorescence units (RFU) compared to blank for metabolic activity over time, or the percent RFU compared to vehicle control for toxicity studies.

TGFβ
tissue thickness and extracellular matrix deposition [1]: induces tissue thickening and increased extracellular matrix deposition; also recorded: extensive ECM deposition in the interstitium
GGT activity (epithelial cell function) [2]: Statistically significant reduction in RPTEC function was detected with higher doses; also recorded: loss of epithelial cell function at the highest dose
fibrosis-related gene expression (COL1A1, CTGF, FAP, PDGFRB) [3]: induction of the fibrotic markers; also recorded: increase in the expression of fibrosis-related genes
Resazurin conversion (overall tissue metabolic activity) [4]: No statistically significant differences

rhodamine 123 [R123]
increase in fluorescence over control tissues (P-gp): 4 fold

insulin: Insulin-Transferrin-Selenium (Gibco) used to stimulate glucose uptake
increase in intracellular 2-DG (SGLT2; tissues in normal tissue media): 4 fold
increase in glucose uptake (SGLT2; tissues starved overnight): 8 fold

N.N.[Cl][Pt][Cl] [cisplatin]
reduction in GGT activity (3D PT tissues [5]): ~50%
LDH release, increase over vehicle controls (3D PT tissues [6]): 3 fold
RPTEC proliferation (PCNA) (3D PT tissues [7]): dose-dependent proliferative response; also recorded: dose-dependent increase in proliferating RPTEC
epithelial morphology (H&E) (3D PT tissues [8]): more squamous morphology and loss of nuclei

Cc1ccc([C@@H]2O[C@H](CO)[C@@H](O)[C@H](O)[C@H]2O)cc1Cc1ccc(-c2ccc(F)cc2)s1 [canagliflozin]
decrease of insulin-induced intracellular 2-DG (SGLT2; normal tissue media, co-administration with insulin, 500 μM canagliflozin): 50%
effect on insulin-induced glucose uptake (SGLT2; tissues starved overnight, 500 μM canagliflozin): significantly reduced by canagliflozin to levels indistinguishable from the control tissues

Lucifer yellow
Papp (3D PT tissues [9]): 2.93e-06 cm/s and 2.63e-06 cm/s and 2.73e-06 cm/s and 2.66e-06 cm/s and 3.74e-06 cm/s and 3.11e-06 cm/s
Papp (3D PT tissues [9]; mean): 2.97 ± 0.17 ×10^−6 cm/s
average Papp (3D PT tissues [9]; Lucifer yellow, 3D PT tissues): 2.97 ×10⁻⁶ cm/s

angiotensin I: human angiotensin I (Abcam), ACE substrate (DRVYIHPFHL; Angiotensin-1; UniProt P01019 25-34, looked up)
angiotensin II detected (ACE): 0.4 pg/mL

CN/C(=N/CCSCc1nc[nH]c1C)NC#N [cimetidine]
RPTEC proliferation (PCNA) (3D PT tissues [7]): low levels of RPTEC proliferation
urinary cystatin C following cisplatin administration [10]: decreased urinary cystatin C
protection against cisplatin-induced loss of viability and epithelial function (3D PT tissues [11]): successfully protected
